Source: US10611765B2, “Pyrrolopyrimidine derivatives as Mps1/TTK kinase inhibitors” (Ohio State Innovation Foundation, priority 2014, dated 2020)

What was measured:
MDA-MB-468 cells = assay: Centriole assembly / centrosome amplification assay, MDA-MB-468; format: cell-based; conditions: compared to IN-1, AZ3146 and Compound 5
Description: For these cell biology assays, cells were plated onto poly-L-lysine coated coverslips in 24 well dishes using the medium and growth conditions described above, but using medium containing phenol red. At 24 hours after plating, compounds (or the equivalent amount of DMSO) were added to individual wells at various concentrations. Cells were incubated for 24 hours at 37° C. BrdU was added during the last 4 hours of the incubation, after which cells were fixed in pre-chilled methanol at −20 OC for 10 minutes, stained with centrosome markers, then treated with acid to denature chromosomal DNA prior to staining for BrdU. To assess centriole biogenesis, centriole number was determined for triplicate samples in cells that had entered S-phase as judged by incorporation of BrdU. Primary antibodies used were mouse anti-γTubulin (pericentriolar material) and rabbit anti-Centrin 2 (centrioles). Secondary antibodies used were Alexa594-conjugated donkey anti-mouse and Alexa488-conjugated donkey anti-rabbit.
For centriole assembly assays, Cal-51 and MDA-MB-468 cells were treated with candidate compounds prior to a short pulse of BrdU. Because the centriole pair is replicated at the G1/S transition, compounds that block centrosome assembly will lead to an increased number of BrdU-positive cells with two centrioles. […]

JNK1 = JNK1 (Homo sapiens, UniProt P45983); conditions: read-out: IC50 JNK1; kinase profiling
Description: Briefly, the inhibition potency to Mps1 kinase activity was determined by measurement of radioactive phosphotransfer to the specific substrate, Cetn2. The autophosphorylation of Mps1 was also measured using the same method without adding Cetn2 in the kinase assay reaction mixture. […] Mps1 activity was measured using 0.25 ng of recombinant GST-Mps1 protein in 50 mM TrisCl pH 7.5, 0.5 mM DTT, 10 mM MgCl2, 300 μM recombinant Cetn2 and 3 μM ^32P-γ-ATP. […] ATP was added to initiate the kinase assay, incubated at 30° C. for 30 min and five-fold volume of […] was added to quench the reaction. The whole reaction was immobilized on Immobilon-P^SQ PVDF membrane (Millipore) using a dot blotter connected to vacuum line. Each well was washed three times with 300 μL of PBS. The membrane was further washed by soaking in PBS, dried, and exposed overnight to a Phosphor Screen. The image was acquired by the Storm imaging system (Amersham). The density analyses were performed by using Image-J program, and kinetic constants were calculated by GraphPad Prism 5 software. Commercial kinase profiling assays were performed by Reaction Biology Corp., Malvern, Pa.

JNK1, sequence (P45983 whole entry): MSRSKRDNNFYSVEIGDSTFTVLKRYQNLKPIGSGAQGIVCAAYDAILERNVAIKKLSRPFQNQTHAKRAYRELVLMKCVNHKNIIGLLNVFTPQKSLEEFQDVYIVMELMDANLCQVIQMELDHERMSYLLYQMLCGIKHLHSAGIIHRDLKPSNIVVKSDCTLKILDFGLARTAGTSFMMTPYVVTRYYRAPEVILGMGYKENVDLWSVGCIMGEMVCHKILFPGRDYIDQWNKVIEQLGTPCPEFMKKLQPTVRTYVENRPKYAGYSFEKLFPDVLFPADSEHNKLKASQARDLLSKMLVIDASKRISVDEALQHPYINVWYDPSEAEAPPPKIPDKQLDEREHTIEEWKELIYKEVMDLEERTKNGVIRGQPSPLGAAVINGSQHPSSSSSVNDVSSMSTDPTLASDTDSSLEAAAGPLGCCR

Row | IC50 (JNK1) | SMILES | percentage of BrdU-positive cells that have just two centrioles (MDA-MB-468 cells) | percentage of cells with more than four centrioles (MDA-MB-468 cells)
1 | – | COc1cc(N2CCC(O)CC2)ccc1Nc1nc(Nc2ccccc2S(=O)(=O)C(C)C)c2cc[nH]c2n1 [Compound 1, 1-(4-((4-((2-(isopropylsulfonyl)phenyl)amino)-7H-pyrrolo[2,3-d]pyrimidin-2-yl)amino)-3-methoxyphenyl)piperidin-4-ol] | increases | decreases
2 | 1670 nM | COc1cc(N2CCOCC2)ccc1Nc1nc(NC2CCCCC2)c2cc[nH]c2n1 [Compound 13, N4-cyclohexyl-N2-(2-methoxy-4-morpholinophenyl)-7H-pyrrolo[2,3-d]pyrimidine-2,4-diamine] | – | –
